# Data taken from patent publication US20250255978A1, “DRUG-DELIVERY NANOPARTICLES AND TREATMENTS FOR DRUG-RESISTANT CANCER” (Cedars-Sinai Medical Center, priority 2016, published 2025).
# Key:
# Assay in all cases: Cell viability assay (MTS), relative cell survival
# Conditions in all cases: dose range, 4 h + 44 h incubation
# [1] = system: BT474-TR (trastuzumab-resistant human breast cancer) cells; type: cell-based
# Protocol: (§1) The cells per well were plated in black-walled, clear-bottom, 96-well plates. […] Plates were rocked for 4 hours at 37° C. and 5% CO2 and then 60 μL of complete media was added to each well to bring the total volume to 100 μL and the incubation was continued, without rocking, for 44 hours at 37° C. and 5% CO2. At the conclusion of the incubation, relative cell viability was determined via MTS assay (Promega) according to manufacturer's instructions. Specifically, the media was removed from the wells and 100 μL of fresh complete media was added to each well. 20 μl of the prepared MTS reagent was added to each well. The plate was then incubated with rocking at 37° C. and 5% CO2 and readings were taken of the plate at 1, 2, and 3 hours at 490 nm using a spectrophotometer.
# (§2) The cells per well were plated in black-walled, clear-bottom, 96-well plates. […] At the conclusion of the incubation, relative cell viability was determined via MTS assay (Promega) according to manufacturer's instructions. […]
# as §2
# [2] = system: SKBR3 (human breast cancer) cells; type: cell-based
# Protocol: as §1
# (§3) To verify the contribution of HER3 targeted toxicity of the Eos-001 nanoparticles, a HER3 peptide was used as a competitive inhibitor. The HER3 peptide was pre-incubated with the Eos-001 particles, which bound the heregulin targeting domain. […]
# as §2
# [3] = system: BT474 (human breast cancer) cells; type: cell-based
# Protocol: Plates were rocked for 4 hours at 37° C. and 5% CO2 and then 60 μL of complete media was added to each well to bring the total volume to 100 μL and the incubation was continued, without rocking, for 44 hours at 37° C. and 5% CO2. At the conclusion of the incubation, relative cell viability was determined via MTS assay (Promega) according to manufacturer's instructions. Specifically, the media was removed from the wells and 100 μL of fresh complete media was added to each well. 20 μl of the prepared MTS reagent was added to each well. The plate was then incubated with rocking at 37° C. and 5% CO2 and readings were taken of the plate at 1, 2, and 3 hours at 490 nm using a spectrophotometer.
# (§4) The cells per well were plated in black-walled, clear-bottom, 96-well plates. […] At the conclusion of the incubation, relative cell viability was determined via MTS assay (Promega) according to manufacturer's instructions. […] The plate was then incubated with rocking at 37° C. and 5% CO2 and readings were taken of the plate at 1, 2, and 3 hours at 490 nm using a spectrophotometer. […]
# as §2
# [4] = system: SKBR3-TR (trastuzumab resistant breast cancer) cells; type: cell-based, human
# Protocol: as §1, §3, §2
# [5] = system: JIMT1 (human breast cancer cells from a patient naturally resistant to trastuzumab); type: cell-based
# Protocol: as §1, with “Relative cell survival after exposure to the described compositions was measured using a cell viability assay. 15,000, 10,000, or 8,000 cells” for “The cells”, “spectrophotometer. […]” for “spectrophotometer.”
# as §4, with “concentration of Eos-001 is reported” for “cells per well were plated”, “μM doxorubicin, and the concentration of lapatinib is reported in μM lapatinib.” for “black-walled, clear-bottom, 96-well plates.”, “on” for “using a”
compound,measurement,setting,value
CS(=O)(=O)CCNCc1ccc(-c2ccc3ncnc(Nc4ccc(OCc5cccc(F)c5)c(Cl)c4)c3c2)o1 [lapatinib],killing of BT474-TR cells,[1],slightly effective
same,killing of SKBR3 cells,[2],similarly effective
same,effect on survival / killing of BT474 cells,[3],similarly effective
same,killing of SKBR3-TR cells,[4],slightly effective
same,effect on survival / killing of JIMT1 cells,[5],unable to kill
